Among the data in patent US10173971B2, “Picolinamides with fungicidal activity” (DOW AGROSCIENCES LLC, priority 2014, dated 2019) are pest or weed control values, retold here.

Like-named read-outs stand apart in the source and are kept apart here.

Assay [1] relates to Puccinia triticina. Put plainly: Fungicidal activity: wheat brown rust (PUCCRT), wheat seedlings, booth sprayer to run-off or track spray. The settings on record: Low-Volume Cereal Activity at 121.5 g/H. It counts as in vivo.
Assay [2] deals with Zymoseptoria tritici. Put plainly: Fungicidal activity: leaf blotch of wheat (SEPTTR), wheat seedlings, booth sprayer to run-off or track spray. Conditions: Low-Volume Cereal Activity at 121.5 g/H. It counts as in vivo.
[3] abbreviates: 24 h, 1 Day Protectant, read-out: PUCCRT 1DP.
Where [4] appears, read: 72 h, 3 Day Curative, read-out: PUCCRT 3DC.
Setting [5] is: 72 h, 3 Day Curative, read-out: SEPTTR 3DC.
[6] abbreviates: 24 h, 1 Day Protectant, read-out: SEPTTR 1DP.

As for `COc1ccnc(C(=O)N[C@@H](C)C(=O)O[C@@H](C)[C@@H](COCCC(C)C)Cc2ccccc2)c1OC(C)=O` [compound 248], the pest or weed control at 121.5 g/ha in assay [1] (setting [3]) was 80 to 100%; in assay [1] (setting [4]), 0 to 80%; in assay [2] (setting [5]), 0 to 80%.

As to `COc1ccnc(C(=O)N[C@@H](C)C(=O)O[C@@H](C)[C@@H](COCc2ccc(F)cc2)Cc2ccc(F)cc2)c1OCOC(C)=O` [compound 249], the pest or weed control at 121.5 g/ha fell in the range of 80 to 100% in assay [1] (setting [3]), 0 to 80% in assay [1] (setting [4]), 80 to 100% in assay [2] (setting [6]) and 0 to 80% in assay [2] (setting [5]).

With `COc1ccnc(C(=O)N[C@@H](C)C(=O)O[C@@H](C)[C@H](Cc2ccc(F)cc2)C(C)(C)OCc2ccc(F)cc2)c1OCOC(C)=O` [compound 250], the pest or weed control at 121.5 g/ha in assay [1] (setting [3]), in assay [1] (setting [4]) and in assay [2] (setting [6]) was 0 to 80% throughout.

Consider `COc1ccnc(C(=O)N[C@@H](C)C(=O)O[C@@H](C)[C@@H](COCCC(C)C)Cc2ccc(F)cc2)c1OCOC(C)=O` [compound 251], for which the pest or weed control at 121.5 g/ha in assay [1] (setting [3]) lay in the range of 80 to 100%; in assay [1] (setting [4]), 0 to 80%; in assay [2] (setting [6]) it was 0 to 80%; in assay [2] (setting [5]), 80 to 100%.

For the molecule `COc1ccnc(C(=O)N[C@@H](C)C(=O)O[C@@H](C)[C@@H](COCCC(C)C)Cc2ccccc2)c1OCOC(C)=O` [compound 252], the pest or weed control at 121.5 g/ha in assay [1] (setting [3]), in assay [1] (setting [4]), in assay [2] (setting [6]) and in assay [2] (setting [5]) was 80 to 100% throughout.

`CCOCC(=O)OCOc1c(OC)ccnc1C(=O)N[C@@H](C)C(=O)O[C@@H](C)[C@@H](COCc1ccc(F)cc1)Cc1ccc(F)cc1` [compound 253]: the pest or weed control at 121.5 g/ha lay in the range of 80 to 100% in assay [1] (setting [3]), 0 to 80% in assay [1] (setting [4]), 80 to 100% in assay [2] (setting [6]) and 0 to 80% in assay [2] (setting [5]).

In the case of `COc1ccnc(C(=O)N[C@@H](C)C(=O)O[C@@H](C)[C@H](Cc2ccccc2)C(C)(C)Oc2ccc(Cl)cc2Cl)c1OCOC(C)=O` [compound 254], the pest or weed control at 121.5 g/ha in assay [1] (setting [3]) lay in the range of 80 to 100%; in assay [1] (setting [4]), 0 to 80%; in assay [2] (setting [6]) it was 80 to 100%; in assay [2] (setting [5]), 80 to 100%.

Turning to `C=C(C)[C@@H](Cc1ccccc1)[C@H](C)OC(=O)[C@H](C)NC(=O)c1nccc(OC)c1OCOC(C)=O` [compound 255], the pest or weed control at 121.5 g/ha in assay [1] (setting [3]) was in the range of 80 to 100%; in assay [1] (setting [4]), 80 to 100%; in assay [2] (setting [6]), 0 to 80%; in assay [2] (setting [5]), 80 to 100%.

Turning to `CCCOC(C)(C)[C@@H](Cc1ccc(OC)cc1)[C@H](C)OC(=O)[C@H](C)NC(=O)c1nccc(OC)c1OCOC(C)=O` [compound 257], the results for the pest or weed control at 121.5 g/ha in assay [1] (setting [3]) and in assay [2] (setting [5]) were 80 to 100% and 0 to 80%, respectively.

In the case of `CCCOC[C@@H](Cc1ccc(OC)c(Cc2ccccc2)c1)[C@H](C)OC(=O)[C@H](C)NC(=O)c1nccc(OC)c1OCOC(C)=O` [compound 258], the pest or weed control at 121.5 g/ha in assay [1] (setting [3]), in assay [1] (setting [4]), in assay [2] (setting [6]) and in assay [2] (setting [5]) was 0 to 80% throughout.

For `CCCOC(C)(C)[C@@H](Cc1ccc(OC)c(Cc2ccccc2)c1)[C@H](C)OC(=O)[C@H](C)NC(=O)c1nccc(OC)c1OCOC(C)=O` [compound 259], the pest or weed control at 121.5 g/ha in assay [1] (setting [3]) and in assay [2] (setting [5]) was 0 to 80% each time.

For `COc1ccnc(C(=O)N[C@@H](C)C(=O)OC(C)C(Cc2ccccc2)Cc2ccccc2)c1OC(C)=O` (stereo partly shown) [compound 260], the pest or weed control at 121.5 g/ha in assay [1] (setting [3]) lay in the range of 80 to 100%; in assay [1] (setting [4]), 0 to 80%; in assay [2] (setting [6]), 80 to 100%; in assay [2] (setting [5]) it was 0 to 80%.

As for `COc1ccnc(C(=O)N[C@H](C(=O)OC(C)C(Cc2ccccc2)Cc2ccccc2)C(C)C)c1OC(C)=O` (stereo partly shown) [compound 261], the pest or weed control at 121.5 g/ha in assay [1] (setting [3]) was 80 to 100%; in assay [1] (setting [4]), 0 to 80%; in assay [2] (setting [6]) it was 0 to 80%; in assay [2] (setting [5]), 0 to 80%.

As to `CC[C@H](NC(=O)c1nccc(OC)c1OC(C)=O)C(=O)OC(C)C(Cc1ccccc1)Cc1ccccc1` (stereo partly shown) [compound 262], the pest or weed control at 121.5 g/ha in assay [1] (setting [3]) was in the range of 80 to 100%; in assay [1] (setting [4]), 0 to 80%; in assay [2] (setting [6]), 0 to 80%.

`COc1ccnc(C(=O)N[C@@H](C)C(=O)OC(C)C(Cc2cccc(F)c2)Cc2cccc(F)c2)c1OC(C)=O` (stereo partly shown) [compound 263]: the pest or weed control at 121.5 g/ha in assay [1] (setting [3]), in assay [1] (setting [4]), in assay [2] (setting [6]) and in assay [2] (setting [5]) was 0 to 80% throughout.

For the molecule `COc1ccnc(C(=O)N[C@@H](C)C(=O)OC(C)C(Cc2ccc(F)cc2)Cc2ccc(F)cc2)c1OC(C)=O` (stereo partly shown) [compound 264], the pest or weed control at 121.5 g/ha in assay [1] (setting [3]) and in assay [2] (setting [6]) was 0 to 80% in each case.

`COc1ccnc(C(=O)N[C@@H](C)C(=O)OC(C)C(Cc2ccccc2)Cc2ccccc2)c1OCOC(C)=O` (stereo partly shown) [compound 265]: the pest or weed control at 121.5 g/ha is 80 to 100% in assay [1] (setting [3]), 0 to 80% in assay [1] (setting [4]), 80 to 100% in assay [2] (setting [6]) and 0 to 80% in assay [2] (setting [5]).

Regarding `COc1ccnc(C(=O)N[C@H](C(=O)OC(C)C(Cc2ccccc2)Cc2ccccc2)C(C)C)c1OCOC(C)=O` (stereo partly shown) [compound 266], the figures for the pest or weed control at 121.5 g/ha in assay [1] (setting [3]), in assay [1] (setting [4]) and in assay [2] (setting [6]) were 80 to 100%, 0 to 80% and 0 to 80%, respectively.

`COc1ccnc(C(=O)N[C@@H](C)C(=O)OC(C)C(Cc2cccc(F)c2)Cc2cccc(F)c2)c1OCOC(C)=O` (stereo partly shown) [compound 267]: the pest or weed control at 121.5 g/ha in assay [1] (setting [3]), in assay [2] (setting [6]) and in assay [2] (setting [5]) was 0 to 80% in each case.

Take `COc1ccnc(C(=O)N[C@@H](C)C(=O)OC(C)C(Cc2ccc(F)cc2)Cc2ccc(F)cc2)c1OCOC(C)=O` (stereo partly shown) [compound 268]: the pest or weed control at 121.5 g/ha in assay [1] (setting [3]) is 80 to 100%; in assay [1] (setting [4]), 80 to 100%; in assay [2] (setting [6]), 0 to 80%; in assay [2] (setting [5]), 0 to 80%.

`CC[C@H](NC(=O)c1nccc(OC)c1OCOC(C)=O)C(=O)OC(C)C(Cc1ccccc1)Cc1ccccc1` (stereo partly shown) [compound 269]: the pest or weed control at 121.5 g/ha in assay [1] (setting [3]) is 80 to 100%; in assay [1] (setting [4]), 0 to 80%; in assay [2] (setting [6]) it was 80 to 100%; in assay [2] (setting [5]), 80 to 100%.

With `COc1cccc(CC(Cc2cccc(OC)c2)[C@H](C)OC(=O)[C@H](C)NC(=O)c2nccc(OC)c2OC(C)=O)c1` [compound 270], the results for the pest or weed control at 121.5 g/ha in assay [1] (setting [3]), in assay [1] (setting [4]) and in assay [2] (setting [6]) were 80 to 100%, 0 to 80% and 0 to 80%, respectively.

`CC[C@H](NC(=O)c1nccc(OC)c1OC(C)=O)C(=O)O[C@@H](C)C(Cc1cccc(OC)c1)Cc1cccc(OC)c1` [compound 271]: the pest or weed control at 121.5 g/ha in assay [1] (setting [3]) and in assay [2] (setting [6]) was 0 to 80% throughout.

For the molecule `COc1ccc(CC(Cc2ccc(OC)cc2)[C@H](C)OC(=O)[C@H](C)NC(=O)c2nccc(OC)c2OC(C)=O)cc1` [compound 272], the pest or weed control at 121.5 g/ha in assay [1] (setting [3]) was in the range of 0 to 80%; in assay [1] (setting [4]), 0 to 80%; in assay [2] (setting [6]), 80 to 100%.

On to `CC[C@H](NC(=O)c1nccc(OC)c1OC(C)=O)C(=O)O[C@@H](C)C(Cc1ccc(OC)cc1)Cc1cccc(OC)c1` (stereo partly shown) [compound 273], for which the pest or weed control at 121.5 g/ha is 0 to 80% in assay [1] (setting [3]), 0 to 80% in assay [1] (setting [4]), 80 to 100% in assay [2] (setting [6]) and 0 to 80% in assay [2] (setting [5]).

In the case of `COc1cccc(CC(Cc2cccc(OC)c2)[C@H](C)OC(=O)[C@H](C)NC(=O)c2nccc(OC)c2OCOC(C)=O)c1` [compound 274], the pest or weed control at 121.5 g/ha fell in the range of 80 to 100% in assay [1] (setting [3]), 0 to 80% in assay [1] (setting [4]) and 0 to 80% in assay [2] (setting [6]).

On to `CC[C@H](NC(=O)c1nccc(OC)c1OCOC(C)=O)C(=O)O[C@@H](C)C(Cc1cccc(OC)c1)Cc1cccc(OC)c1` [compound 275], for which the results for the pest or weed control at 121.5 g/ha in assay [1] (setting [3]), in assay [1] (setting [4]) and in assay [2] (setting [6]) were 80 to 100%, 0 to 80% and 0 to 80%, respectively.

On to `COc1ccc(CC(Cc2ccc(OC)cc2)[C@H](C)OC(=O)[C@H](C)NC(=O)c2nccc(OC)c2OCOC(C)=O)cc1` [compound 276], for which the pest or weed control at 121.5 g/ha in assay [1] (setting [3]) lay within 80 to 100%; in assay [2] (setting [6]), 80 to 100%; in assay [2] (setting [5]), 0 to 80%.

On to `CC[C@H](NC(=O)c1nccc(OC)c1OCOC(C)=O)C(=O)O[C@@H](C)C(Cc1ccc(OC)cc1)Cc1ccc(OC)cc1` [compound 277], for which the pest or weed control at 121.5 g/ha in assay [1] (setting [3]) lay in the range of 80 to 100%; in assay [1] (setting [4]), 0 to 80%; in assay [2] (setting [6]) it was 80 to 100%.

Consider `COc1ccc(C[C@@H]([C@H](C)OC(=O)[C@H](C)NC(=O)c2nccc(OC)c2OCOC(C)=O)C(C)(C)OCC2CC2)cc1` [compound 278], for which the pest or weed control at 121.5 g/ha in assay [1] (setting [3]) lay in the range of 80 to 100%; in assay [1] (setting [4]), 0 to 80%; in assay [2] (setting [6]) it was 0 to 80%; in assay [2] (setting [5]) it was 0 to 80%.

As to `COc1ccc(C[C@@H]([C@H](C)OC(=O)[C@H](C)NC(=O)c2nccc(OC)c2OCOC(C)=O)C(C)(C)Oc2ccc(F)cc2F)cc1` [compound 279], the pest or weed control at 121.5 g/ha in assay [1] (setting [3]) lay in the range of 80 to 100%; in assay [1] (setting [4]), 0 to 80%; in assay [2] (setting [6]), 0 to 80%; in assay [2] (setting [5]) it was 80 to 100%.

In the case of `COc1ccc(C[C@H](COCC2CC2)[C@H](C)OC(=O)[C@H](C)NC(=O)c2nccc(OC)c2OCOC(C)=O)cc1` [compound 280], the pest or weed control at 121.5 g/ha lay in the range of 80 to 100% in assay [1] (setting [3]), 80 to 100% in assay [1] (setting [4]), 0 to 80% in assay [2] (setting [6]) and 80 to 100% in assay [2] (setting [5]).
